Patent publication US9334242B2, “Compounds for treatment of cancer” (GTX, INC., priority 2010, dated 2016)
Where two headings read alike, the source gives them in different places.

Experiments:
[1] = tested on: A375 human melanoma xenograft; test: In vivo anti-tumor activity, A375 human melanoma xenograft on SHO mice; conditions: 25 mg/kg, 31 days
[2] = tested on: WM-164; test: Cytotoxicity / cell growth inhibition, SRB assay; format: cell-based; conditions: Homo sapiens, WM164, Table 6A
[3] = tested on: LNCaP; test: Cytotoxicity / cell growth inhibition, SRB assay; conditions: Homo sapiens, 96 h, read-out: IC50 ± SEM (nM) LNCaP, SRB assay, 96 h of treatment
[4] = tested on: PC-3; test: Cytotoxicity / cell growth inhibition, SRB assay; conditions: Homo sapiens, PC-3, 96 h, read-out: IC50 ± SEM (nM) PC-3, SRB assay, 96 h of treatment
[5] = tested on: PPC-1; test: Cytotoxicity / cell growth inhibition, SRB assay; conditions: Homo sapiens
[6] = tested on: DU 145; test: Cytotoxicity / cell growth inhibition, SRB assay; conditions: Homo sapiens, DU-145, 96 h, read-out: IC50 ± SEM (nM) DU 145, SRB assay, 96 h of treatment
[7] = tested on: B16-F1; test: Cytotoxicity / cell growth inhibition, sulforhodamine B (SRB) assay; format: cell-based; conditions: Mus musculus, B16-F1, 96 h, 96 h of treatment, read-out: IC50 ± SEM (nM) B16-F1
[8] = tested on: A375; test: Cytotoxicity / cell growth inhibition, SRB assay; format: cell-based; conditions: Homo sapiens, A-375, 96 h, 96 h of treatment, read-out: IC50 ± SEM (nM) A375
[9] = Pharmacokinetic study in ICR mice
[10] = Pharmacokinetic study in Sprague-Dawley rats; conditions: rat
[11] = in vivo; conditions: female, Sprague-Dawley, rat, plasma, 10 mg/kg
[12] = tested on: PC-3_TxR; test: Cytotoxicity SRB assay, paclitaxel-resistant prostate line; conditions: for IC50: Homo sapiens, PC3-TxR, read-out: IC50 ± SEM (nM) PC-3_TxR; for Resistance Factor: PC-3_TxR versus PC-3
[13] = tested on: Porcine brain tubulin; test: In vitro microtubule polymerization assay; format: biochemical
[14] = tested on: MES-SA; test: Growth inhibition SRB assay, parental line; format: cell-based; conditions: Homo sapiens, Table 6, read-out: IC50 ± SEM (nM) MES-SA
[15] = tested on: MES-SA/DX5; test: Growth inhibition SRB assay, P-gp over-expressing line; format: cell-based; conditions: Homo sapiens, Table 6, read-out: IC50 ± SEM (nM) MES-SA/Dx5
[16] = tested on: WM-164 melanoma cells; test: Microtubule imaging (immunofluorescence, Cellomics Cytoskeleton rearrangement kit); format: cell-based, human; conditions: WM-164 cells, 18 h
Description: Primary antibody for tubulin and fluorescence-labeled secondary antibody were subsequently added to the cells. Cell nuclei were stained by DAPI. Whole Cell Stain Green was also applied to all cells. All images were acquired with an Olympus IX71 inverted fluorescence microscope (Olympus Corp., Tokyo, Japan) with overlays from separate images of tubulin (red), nuclei (blue), and whole cells (green).

[17] = tested on: OVCAR-8; test: Cytotoxicity SRB assay, MDR model parent line; format: cell-based; conditions: Homo sapiens
[18] = tested on: T1, tubulin colchicine binding site; test: [3H]-colchicine competition-binding scintillation proximity assay; conditions: SPA
T1 construct: […]; other: SPA

With `O=C(c1ccc(F)cc1)c1c[nH]c(-c2ccc(Cl)cc2)n1` [12fb, (2-(4-chlorophenyl)-1H-imidazol-4-yl)(4-fluorophenyl)methanone] the “tolerability (body weight, physical activity)” value [1] was “well tolerated”.

With `O=C(c1ccc(F)cc1)c1csc(-c2ccccc2)n1` [compound 12] the IC50 [2] was > 10000 nM.

Work on `O=C(c1ccc2[nH]ccc2c1)c1csc(-c2cc3ccccc3[nH]2)n1` [compound 21, (2-(1H-indol-2-yl)thiazol-4-yl)(1H-indol-5-yl)methanone] yielded an IC50 [3] of 103 nM, an IC50 [4] of 87 nM and an IC50 ([5]; PPC-1, 96 h, read-out: IC50 ± SEM (nM) PPC-1, SRB assay, 96 h of treatment) of 76 nM. The IC50 [6] was 116 nM, the IC50 [7] was 110 nM and the IC50 [8] was 100 nM.

Compound `COc1cc(C(=O)c2csc(Nc3ccc4[nH]ccc4c3)n2)cc(OC)c1OC` [compound 55, (2-(1H-indol-5-ylamino)thiazol-4-yl)(3,4,5-trimethoxyphenyl)methanone] has a MousePK_IV10mgk_Cl ([9]; mouse, i.v. 10 mg/kg) of 40 mLmin/kg, a MousePK_IV10mgk_V ([9]; mouse, i.v. 10 mg/kg) of 1.3 Lkg and a MousePK_Bioavailability ([9]; mouse, oral) of 34 %F. The “oral bioavailability, mice” value ([9]; p.o. 20 mg/kg versus i.v. 10 mg/kg) was 34%, the RatPK_IV5mgk_V ([10]; i.v. 5 mg/kg) was 1.0 Lkg and the RatPK_PO10mgk_AUC ([10]; p.o. 10 mg/kg) was 335 µg·min/mL. It also gave a RatPK_PO10mgk_Cmax ([10]; p.o. 10 mg/kg) of 1052 ng/mL, a bioavailability ([11]; oral) of 33% and a bioavailability ([11]; po) of 33%. For the same compound, the IC50 [12] was 29 ± 1 nM, the “Resistance Factor” value [12] was 1.2 and the “inhibition of tubulin polymerization at 1 μM” value [13] was 11%.

`CC(=O)O[C@H]1C(=O)[C@@]2(C)[C@H]([C@H](OC(=O)c3ccccc3)[C@]3(O)C[C@H](OC(=O)[C@H](O)[C@@H](NC(=O)c4ccccc4)c4ccccc4)C(C)=C1C3(C)C)[C@]1(OC(C)=O)CO[C@@H]1C[C@@H]2O` [paclitaxel] showed an IC50 ([5]; PPC-1, 96 h, read-out: IC50 ± SEM (nM) PPC-1) of 2.3 nM, an IC50 ([5]; PPC-1, read-out: IC50 ± SEM (nM) PPC-1) of 2.3 ± 0.8 nM and an IC50 ([5]; PPC-1, read-out: IC50 ± SEM (nm) PPC-1) of 2.3 ± 0.8 nM. It also gave an IC50 [14] of 2.7 nM, an IC50 [15] of 6.6 nM and an IC50 [12] of 97 ± 1 nM. The “Resistance Factor” value [12] was 20, the “effect on microtubule arrangement” value [16] was “condensation of microtubules” and the IC50 ([17]; OVCAR-8, read-out: IC50 (nM) OVCAR-8) was 4.7 ± 0.1 nM. For the same compound, the IC50 ([17]; OVCAR-8, read-out: IC50 ± SEM (nm) OVCAR-8) was 4.7 ± 0.1 nM and the “competition for the tubulin colchicine binding site (in words)” value [18] was “flat line”.
